Marks after values point to notes of the source that are not given here.
How the values were obtained:
[1] = Plasma pharmacokinetics (LC-MS/MS, noncompartmental analysis); format: in vivo, human
Description: For patients enrolled in the escalation part of the study, PK blood samples were collected at C1D1 predose; 0.5 h, 1 h, 2 h, 4 h, 8 h, and 12 h postdose; d 2 (24 h), d 3 (48 h), d 4 (72 h), and d 10 predose; d 17 (for 14 d-on/14 d-off regimen) or d 24 (for 7 d-on/7 d-off regimen) predose; and 0.5 h, 1 h, 2 h, 4 h, 8 h, and 12 h postdose. For patients enrolled in the expansion part, PK samples were collected predose on the last administration day and 0.5 h, 1 h, 2 h, 4 h, 8 h, and 12 h postdose on the last administration day. GFH018 levels in plasma samples were analyzed using a validated liquid chromatography-tandem mass spectrometry method. GFH018 PK parameters were determined using noncompartmental analysis methods and calculated using Phoenix WinNonlin Version 8.3.1 (Certara, Princeton, NJ, USA). GFH018 plasma concentrations and PK parameters were summarized descriptively according to the dose level.

[2] = set-up: method as in doi:10.1158/1538-7445.AM2019-3072; settings: preclinical; cited from earlier work
[3] = set-up: method as in PMID 25488804, PMID 26309397; settings: consecutive regimens; cited from earlier work
[4] = system: recurrent/metastatic nasopharyngeal carcinoma (R/M NPC); set-up: method as in doi:10.1200/JCO.2023.41.16_suppl.6026; settings: ongoing phase Ib/II study; cited from earlier work
[5] = multiple dose, 5 mg BID 14d-on/14d-off (N=3)
[6] = multiple dose, 10 mg BID 14d-on/14d-off (N=3)
[7] = multiple dose, 20 mg BID 14d-on/14d-off (N=3)
[8] = multiple dose, 30 mg BID 14d-on/14d-off (N=7)
[9] = multiple dose, 40 mg BID 14d-on/14d-off (N=3)
[10] = multiple dose, 50 mg BID 14d-on/14d-off (N=2)
[11] = multiple dose, 65 mg BID 14d-on/14d-off (N=6)
[12] = multiple dose, 85 mg BID 7d-on/7d-off (N=5)
[13] = multiple dose, 85 mg BID 14d-on/14d-off (N=7), escalation and expansion parts combined
[14] = single dose, 5 mg BID 14d-on/14d-off (N = 4)
[15] = single dose, 10 mg BID 14d-on/14d-off (N = 3)
[16] = single dose, 20 mg BID 14d-on/14d-off (N = 4)
[17] = single dose, 30 mg BID 14d-on/14d-off (N = 7)
[18] = single dose, 40 mg BID 14d-on/14d-off (N = 4)
[19] = single dose, 50 mg BID 14d-on/14d-off (N = 4)
[20] = single dose, 65 mg BID 14d-on/14d-off (N = 6)
[21] = single dose, 85 mg BID 7d-on/7d-off (N = 6)
[22] = single dose, 85 mg BID 14d-on/14d-off (N = 9), dose escalation part only

Cc1cccc(-c2nn3c(c2-c2ccc4ncnn4c2/C=C/C(N)=O)CCC3)n1 [GFH018]
PK linearity ([1]; 5 – 85 mg): linear and dose-independent
mean half-life ([1]; 5 – 85 mg (single and multiple dose)): 2.25 to 8.60 h
geometric CV% of exposure (Cmax and AUC) at the steady state ([1]; all cohorts): 7.3–168.9%
AUCtau, geometric mean (geometric CV) [1, 5]: 597 (61.1) h*ng/mL
Cmax, geometric mean (geometric CV) [1, 5]: 165 (15.7) ng/mL
Cmin, geometric mean (geometric CV) [1, 5]: 7.48 (208.2) ng/mL
Racc (accumulation ratio calculated by AUC), geometric mean (geometric CV) [1, 5]: 1.02 (37.9)
Tmax, median (minimum, maximum) [1, 5]: 0.88 (0.42, 0.95) h
t1/2, geometric mean (geometric CV) [1, 5]: 2.67 (31.0) h
AUCtau, geometric mean (geometric CV) [1, 6]: 997 (168.9) h*ng/mL
Cmax, geometric mean (geometric CV) [1, 6]: 291 (124.9) ng/mL
Cmin, geometric mean (geometric CV) [1, 6]: 15.8 (212.1) ng/mL
Racc (accumulation ratio calculated by AUC), geometric mean (geometric CV) [1, 6]: 1.22 (40.3)
Tmax, median (minimum, maximum) [1, 6]: 0.92 (0.90, 1.27) h
t1/2, geometric mean (geometric CV) [1, 6]: 2.25 (26.5) h
AUCtau, geometric mean (geometric CV) [1, 7]: 2056 (76.9) h*ng/mL
Cmax, geometric mean (geometric CV) [1, 7]: 676 (48.0) ng/mL
Cmin, geometric mean (geometric CV) [1, 7]: 25.5 (137.3) ng/mL
Racc (accumulation ratio calculated by AUC), geometric mean (geometric CV) [1, 7]: 1.15 (17.4)
Tmax, median (minimum, maximum) [1, 7]: 0.93 (0.57, 1.08) h
t1/2, geometric mean (geometric CV) [1, 7]: 2.55 (24.6) h
AUCtau, geometric mean (geometric CV) [1, 8]: 5605 (76.6) h*ng/mL
Cmax, geometric mean (geometric CV) [1, 8]: 1167 (87.9) ng/mL
Cmin, geometric mean (geometric CV) [1, 8]: 144 (107.2) ng/mL
Racc (accumulation ratio calculated by AUC), geometric mean (geometric CV) [1, 8]: 1.32 (39.4)
Tmax, median (minimum, maximum) [1, 8]: 1.10 (0.47, 2.58) h
t1/2, geometric mean (geometric CV) [1, 8]: 4.09 (36.8) h
AUCtau, geometric mean (geometric CV) [1, 9]: 5144 (30.3) h*ng/mL
Cmax, geometric mean (geometric CV) [1, 9]: 1599 (33.7) ng/mL
Cmin, geometric mean (geometric CV) [1, 9]: 21.0 (2741.3) ng/mL
Racc (accumulation ratio calculated by AUC), geometric mean (geometric CV) [1, 9]: 1.18 (6.7)
Tmax, median (minimum, maximum) [1, 9]: 0.88 (0.38, 1.00) h
t1/2, geometric mean (geometric CV) [1, 9]: 2.45 (42.8) h
AUCtau, geometric mean (geometric CV) [1, 10]: 4432 (43.6) h*ng/mL
Cmax, geometric mean (geometric CV) [1, 10]: 1253 (7.3) ng/mL
Cmin, geometric mean (geometric CV) [1, 10]: 91.4 (72.9) ng/mL
Racc (accumulation ratio calculated by AUC), geometric mean (geometric CV) [1, 10]: 1.26 (9.2)
Tmax, median (minimum, maximum) [1, 10]: 0.75 (0.50, 1.00) h
t1/2, geometric mean (geometric CV) [1, 10]: 3.53 (3.1) h
AUCtau, geometric mean (geometric CV) [1, 11]: 8189 (29.3) h*ng/mL
Cmax, geometric mean (geometric CV) [1, 11]: 2303 (34.0) ng/mL
Cmin, geometric mean (geometric CV) [1, 11]: 129 (51.8) ng/mL
Racc (accumulation ratio calculated by AUC), geometric mean (geometric CV) [1, 11]: 1.17 (25.3)
Tmax, median (minimum, maximum) [1, 11]: 1.88 (0.50, 2.00) h
t1/2, geometric mean (geometric CV) [1, 11]: 2.59 (9.6) h
AUCtau, geometric mean (geometric CV) [1, 12]: 7732 (46.8) h*ng/mL
Cmax, geometric mean (geometric CV) [1, 12]: 2193 (29.1) ng/mL
Cmin, geometric mean (geometric CV) [1, 12]: 115 (92.5) ng/mL
Racc (accumulation ratio calculated by AUC), geometric mean (geometric CV) [1, 12]: 1.04 (32.5)
Tmax, median (minimum, maximum) [1, 12]: 0.50 (0.50, 1.00) h
t1/2, geometric mean (geometric CV) [1, 12]: 2.92 (18.3) h
AUCtau, geometric mean (geometric CV) [1, 13]: 11353 (27.9) h*ng/mL
Cmax, geometric mean (geometric CV) [1, 13]: 3034 (33.6) ng/mL
Cmin, geometric mean (geometric CV) [1, 13]: 164 (54.3) ng/mL
Tmax, median (minimum, maximum) [1, 13]: 0.50 (0.50, 2.05) h
Racc (accumulation ratio calculated by AUC), geometric mean (geometric CV) ([1]; multiple dose, 85 mg BID 14d-on/14d-off (N=7), n=5 for Racc): 1.18 (24.1)^e
t1/2, geometric mean (geometric CV) ([1]; multiple dose, 85 mg BID 14d-on/14d-off (N=7), n=5 for t1/2): 3.01 (20.0)^d h
geometric mean accumulation ratio (Racc, by AUC) across all dose groups ([1]; multiple doses): 1.02–1.32
increase of exposure with dose ([1]; multiple doses / overall, 5–85 mg): increased in an approximately proportional manner
accumulation ([1]; multiple doses, any cohort): No obvious accumulation
absorption after oral administration ([1]; oral): rapidly absorbed
increase of plasma exposure (AUC0-t and Cmax) with dose ([1]; single dose, 5–85 mg): increased in an approximately proportional manner
AUC0-12, geometric mean (geometric CV) [1, 14]: 690 (51.3) h*ng/mL
AUC0-inf, geometric mean (geometric CV) [1, 14]: 769 (58.3) h*ng/mL
AUC0-t, geometric mean (geometric CV) [1, 14]: 754 (58.4) h*ng/mL
Cmax, geometric mean (geometric CV) [1, 14]: 215 (50.2) ng/mL
Tmax, median (minimum, maximum) [1, 14]: 0.65 (0.40, 0.97) h
t1/2, geometric mean (geometric CV) [1, 14]: 4.42 (82.9) h
AUC0-12, geometric mean (geometric CV) [1, 15]: 819 (99.0) h*ng/mL
AUC0-inf, geometric mean (geometric CV) [1, 15]: 864 (110.5) h*ng/mL
AUC0-t, geometric mean (geometric CV) [1, 15]: 852 (111.3) h*ng/mL
Cmax, geometric mean (geometric CV) [1, 15]: 250 (72.2) ng/mL
Tmax, median (minimum, maximum) [1, 15]: 0.88 (0.42, 0.93) h
t1/2, geometric mean (geometric CV) [1, 15]: 3.11 (106.3) h
AUC0-12, geometric mean (geometric CV) [1, 16]: 2551 (107.3) h*ng/mL
AUC0-inf, geometric mean (geometric CV) [1, 16]: 2825 (123.9) h*ng/mL
AUC0-t, geometric mean (geometric CV) [1, 16]: 2802 (123.7) h*ng/mL
Cmax, geometric mean (geometric CV) [1, 16]: 743 (65.1) ng/mL
Tmax, median (minimum, maximum) [1, 16]: 0.49 (0.43, 1.03) h
t1/2, geometric mean (geometric CV) [1, 16]: 4.90 (115.1) h
AUC0-12, geometric mean (geometric CV) [1, 17]: 4250 (50.4) h*ng/mL
AUC0-inf, geometric mean (geometric CV) [1, 17]: 4926 (47.8) h*ng/mL
AUC0-t, geometric mean (geometric CV) [1, 17]: 4895 (48.2) h*ng/mL
Cmax, geometric mean (geometric CV) [1, 17]: 972 (82.7) ng/mL
Tmax, median (minimum, maximum) [1, 17]: 0.95 (0.37, 3.80) h
t1/2, geometric mean (geometric CV) [1, 17]: 5.74 (37.6) h
AUC0-12, geometric mean (geometric CV) [1, 18]: 4147 (30.3) h*ng/mL
AUC0-inf, geometric mean (geometric CV) [1, 18]: 4603 (35.2) h*ng/mL
AUC0-t, geometric mean (geometric CV) [1, 18]: 4561 (35.3) h*ng/mL
Cmax, geometric mean (geometric CV) [1, 18]: 1180 (24.7) ng/mL
Tmax, median (minimum, maximum) [1, 18]: 0.69 (0.37, 0.90) h
t1/2, geometric mean (geometric CV) ([1]; single dose, 40 mg BID 14d-on/14d-off (N = 4), n=3 for t1/2): 8.60 (103.8)^b h
AUC0-12, geometric mean (geometric CV) [1, 19]: 5100 (57.9) h*ng/mL
AUC0-inf, geometric mean (geometric CV) [1, 19]: 5906 (49.3) h*ng/mL
AUC0-t, geometric mean (geometric CV) [1, 19]: 5858 (50.2) h*ng/mL
Cmax, geometric mean (geometric CV) [1, 19]: 1209 (85.4) ng/mL
Tmax, median (minimum, maximum) [1, 19]: 0.96 (0.47, 1.92) h
t1/2, geometric mean (geometric CV) [1, 19]: 5.93 (51.2) h
AUC0-12, geometric mean (geometric CV) [1, 20]: 7028 (10.9) h*ng/mL
AUC0-inf, geometric mean (geometric CV) [1, 20]: 7870 (17.9) h*ng/mL
AUC0-t, geometric mean (geometric CV) [1, 20]: 7831 (17.8) h*ng/mL
Cmax, geometric mean (geometric CV) [1, 20]: 2172 (16.3) ng/mL
Tmax, median (minimum, maximum) [1, 20]: 0.68 (0.48, 2.00) h
t1/2, geometric mean (geometric CV) [1, 20]: 5.51 (34.3) h
AUC0-12, geometric mean (geometric CV) [1, 21]: 7455 (27.3) h*ng/mL
AUC0-inf, geometric mean (geometric CV) [1, 21]: 8284 (28.1) h*ng/mL
AUC0-t, geometric mean (geometric CV) [1, 21]: 8240 (27.9) h*ng/mL
Cmax, geometric mean (geometric CV) [1, 21]: 2555 (29.9) ng/mL
Tmax, median (minimum, maximum) [1, 21]: 0.50 (0.50, 1.10) h
t1/2, geometric mean (geometric CV) [1, 21]: 7.45 (61.8) h
AUC0-12, geometric mean (geometric CV) [1, 22]: 10074 (42.0) h*ng/mL
AUC0-inf, geometric mean (geometric CV) [1, 22]: 11164 (45.4) h*ng/mL
AUC0-t, geometric mean (geometric CV) [1, 22]: 11119 (45.5) h*ng/mL
Cmax, geometric mean (geometric CV) [1, 22]: 3225 (35.5) ng/mL
Tmax, median (minimum, maximum) [1, 22]: 0.58 (0.45, 1.12) h
t1/2, geometric mean (geometric CV) [1, 22]: 6.37 (41.6) h
effect in combination with anti-PD-1/L1 antibodies [2]: Synergistic effects were observed
cardiac findings in toxicology studies [3]: cardiac lesions occur
efficacy in combination with toripalimab [4]: promising efficacy was shown
